# Literature values as cited in US8679052B2, “Method for accurately determining concentrations of diffusible materials” (priority 2009, dated 2014).
# Test system: red blood cells
# Settings: red blood cells suspended in buffer; in the first 1-2 minutes
smiles,measurement,value
CC(=O)/N=c1/sc(S(N)(=O)=O)nn1C [methazolamide],decrease of buffer concentration (uptake by red blood cells),50%
